Measured values from PMC4706532, “Diarylthiophenes as inhibitors of the pore-forming protein perforin” (Bioorganic & Medicinal Chemistry Letters, 2016).
Values after ≈ are worked out from the molar mass of the structure shown.

How the values were obtained:
perforin = tested on: perforin; parameters: method as in earlier work; conditions: compound concentration 100 µM; cited from earlier work
recombinant perforin = molecular target: T1, recombinant perforin (Mus musculus, UniProt P10820); parameters: method as in PMID 22244072; conditions: 2 vs HTS hit 1; cited from earlier work
T1 sequence (P10820 21-554): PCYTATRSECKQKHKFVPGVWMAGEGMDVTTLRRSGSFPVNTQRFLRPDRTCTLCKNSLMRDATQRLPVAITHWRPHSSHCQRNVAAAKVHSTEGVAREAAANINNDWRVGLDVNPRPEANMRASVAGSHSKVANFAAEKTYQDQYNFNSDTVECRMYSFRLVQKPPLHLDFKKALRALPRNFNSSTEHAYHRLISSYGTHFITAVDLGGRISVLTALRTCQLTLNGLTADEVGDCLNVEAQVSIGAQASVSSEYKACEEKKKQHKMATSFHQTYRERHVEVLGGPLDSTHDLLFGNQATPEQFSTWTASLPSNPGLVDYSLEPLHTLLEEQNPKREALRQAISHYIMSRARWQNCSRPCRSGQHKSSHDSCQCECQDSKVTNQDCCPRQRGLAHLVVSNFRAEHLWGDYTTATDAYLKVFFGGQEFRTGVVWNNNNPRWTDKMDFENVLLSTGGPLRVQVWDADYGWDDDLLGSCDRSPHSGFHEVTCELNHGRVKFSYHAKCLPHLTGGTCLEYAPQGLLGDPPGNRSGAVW

[1] = Toxicity to KHYG-1 NK cells (Trypan blue exclusion); conditions: human
Description: (§1) The compounds were then evaluated for their ability to block the effect of perforin delivered by whole KHYG-1 NK cells (Table 2). Employing whole NK cells is a more rigorous model of conditions in vivo than the use of isolated recombinant protein since effector cell identification of the labelled target cell and formation of an immune synapse are required for perforin release. […] After co-incubation of inhibitor with KHYG-1 NK cells in medium for 30 min at room temperature, ^51Cr-labelled K562 leukaemia target cells were added and cell lysis evaluated after 4 h incubation at 37 °C by measuring ^51Cr release. […] Viable and dead cells were counted and percent viability calculated based on total cell count (for further details see Supplementary data). […] For the purposes of this work, compounds are classified as toxic if NK cell viability falls below 70%. This is due to the importance of CTLs and NK cells in the overall immunological response which means that it is essential that any pharmacological intervention allows rapid recovery of these cytotoxic effector cells for normal immunological function.
The toxicity assay was carried out in exactly the same manner as the killing assay above, but instead of adding the labelled K562 target cells, 100 μL of RPMI 0.1% BSA was added. Cells were incubated for 4 h at 37 °C and then washed ×3 in RPMI + 0.1% BSA. Cells were then re-suspended in 200 μL of complete medium and incubated for 18−24 h at 37 °C. Trypan blue was added to each well. Viable (clear) cells and total (clear + blue) cells were counted, and the percentage of viable cells was calculated compared to DMSO treated cell control (% viability).

[2] = Plasma stability, human plasma; format: in vitro ADME; conditions: % parent remaining at 24 h, 37 °C
Description: (§2) Preliminary stability studies were carried out by incubation in human or mouse plasma at 37 °C with the percentage parent remaining measured at 24 h (Table 2). […] In mouse plasma the ratio of open to closed is 50:50%, while in human plasma this shifts to 90:10 due to the strong affinity of human serum albumin for the ring-opened form.[20] It is likely that the same phenomenon is operating in the present case and while not necessarily an issue for mouse studies, will need to be addressed in future work.
(§3) Incubation method - Mouse (CD-1, male) and human (pooled) plasma pH was adjusted to 7.4 with either 1M phosphoric acid or sodium hydroxide. Plasma was spiked with 100 uM of test compounds and divided into two parts; one part was immediately transferred to -80 °C (control), and the second part was incubated at 37 °C at 24 h.
(§4) At the end of the study duration, samples were transferred to -80 °C until ready to analyse by HPLC-DAD. On the day of analysis, control and incubated samples were thawed on wet ice and mixed.
(§5) Sample treatment for HPLC - 20 uL of samples were mixed with 80 uL (1:4 v/v) ice cold acetonitrile to precipitate the plasma proteins, centrifuged at 13,000 rpm for 5 min to obtain the clear supernatant. The supernatant was diluted with 0.01% formic acid– water (1:2 v/v) and 50 uL was injected onto the HPLC system (Agilent).
(§6) Calculation: The % loss was calculated based on peak area using the following formula: (peak area time “0”- peak area time “24h”)/peak area time “0” multiplied by 100. % Remaining = 100 - % loss.

[3] = Plasma stability, mouse plasma; format: in vitro ADME; conditions: % parent remaining at 24 h, 37 °C
Description: as §2, §3, §4, §5, §6

[4] = tested on: perforin delivered by KHYG-1 NK cells; assay: KHYG-1 cytotoxicity assay: lysis of K562 target cells by KHYG-1 NK cells (51Cr release); format: cell-based, human; conditions: for inhibition at 20 µM: Homo sapiens, KHYG-1 NK, read-out: KHYG-1 inhibition (% at 20 μM), compound 20 μM; for inhibition at 20 µM / KHYG-1 inhibition (% at 20 μM): perforin-induced lysis of K562 target cells co-incubated with KHYG-1 human NK cells, vs untreated control; for KHYG-1 inhibition (% at 20 μM): compound 20 μM; for Activity against perforin delivered by whole KHYG-1 NK cells (in words): whole human NK cells, K562 targets
Description: as §1
KHYG-1 cells were washed and re-suspended in RPMI + 0.1% BSA at 4 × 10^5 cells/mL, and an amount of 50 μL of KHYG-1 cells was dispensed to each well of a 96-well V-bottom plate. RPMI (50 μL) + 0.1% BSA or 10% (final concentration) of serum was added to each well. Then test compounds were added to KHYG-1 cells at various concentrations up to 20 μM and incubated at room temperature for […]. 1 × 10^6 K562 target cells were labelled with 75 μCi ^51Cr in 200 μL of RPMI for 90 min at 37 °C. Cells were washed as described above and re-suspended in 5 mL of RPMI + 0.1% BSA. An amount of 50 μL of ^51Cr labelled K562 leukaemia target cells was added to each well of the KHYG-1 plate (effector/target 2:1) and incubated at 37 °C for 4 h. ^51Cr release was assayed using a Skatron harvesting press and radioactivity estimated on a Wallac Wizard 1470 automatic γ counter (Turku, Finland). The percentage of specific cytotoxicity was calculated using the following formula:
% specific lysis = […]
(maximum release - spontaneous release)
and expressed as the mean of triplicate assays ± standard error of the mean.

Solubility in water = conditions: water

With `O=C1NC(=S)N/C1=C/c1ccc(-c2ccc3c(c2)COC3=O)o1` [Compound 1] as the molecule, how does the “Inhibition of perforin-mediated lysis of SRBC (in words)” value (perforin) read?
The value was “reproducibly inhibit”.

With `O=C1NC(=S)N/C1=C/c1ccc(-c2ccc3c(c2)COC3=O)s1` [Compound 2] as the molecule, how does the “Fold improvement in inhibition of isolated perforin protein function over 1” value (recombinant perforin) read?
The value was ~8 fold.

Which results are given for `NC(=O)c1ccc(-c2ccc(-c3ccc4c(c3)COC4=O)s2)cc1` [Compound 23]?
viability at 24 h, 20 µM [1]: 90%; Plasma stability (% at 24 h) Human [2]: 46%; Plasma stability (% at 24 h) Mouse [3]: 75%; inhibition at 20 µM [4]: 60%; KHYG-1 inhibition (% at 20 μM) ([4]; 20 µM): 63%; Activity against perforin delivered by whole KHYG-1 NK cells (in words) [4]: excellent activity

What does the source list for `NC(=O)c1ccc(-c2ccc(-c3ccc4c(c3)COC4=O)s2)cc1O` [Compound 48]?
viability at 24 h, 20 µM [1]: 92%; Plasma stability (% at 24 h) Human [2]: 49%; Plasma stability (% at 24 h) Mouse [3]: 75%; solubility (Solubility in water): 0.023 µg/mL (≈ 0.0655 µM); inhibition at 20 µM [4]: 20%; Activity against perforin delivered by whole KHYG-1 NK cells (in words) [4]: poor or no activity

What does the source list for `O=C1OCc2cc(-c3ccc(-c4ccc(CO)cc4)s3)ccc21` [Compound 59]?
viability at 24 h, 20 µM [1]: 79%; Plasma stability (% at 24 h) Human [2]: 73%; Plasma stability (% at 24 h) Mouse [3]: 87%; inhibition at 20 µM [4]: 13%; Activity against perforin delivered by whole KHYG-1 NK cells (in words) [4]: poor or no activity

For `CS(=O)(=O)Nc1ccc(-c2ccc(-c3ccc4c(c3)COC4=O)s2)cc1` [Compound 63], which “Plasma stability (% at 24 h) Human” value [2] is on record?
Its value is 70%.

And the “Plasma stability (% at 24 h) Mouse” value [3]?
The value was 80%.

And the “KHYG-1 inhibition (% at 20 μM)” value [4]?
Its value is “No activity”.

And the “Activity against perforin delivered by whole KHYG-1 NK cells (in words)” value [4]?
Its value is “poor or no activity”.

Which results are given for `NC(=O)c1ccc(-c2ccc(-c3ccc4c(c3)COC4=O)s2)cn1` [Compound 67]?
viability at 24 h, 20 µM [1]: 82%; Plasma stability (% at 24 h) Human [2]: 39%; Plasma stability (% at 24 h) Mouse [3]: 66%; solubility (Solubility in water): 0.204 µg/mL (≈ 0.606 µM); inhibition at 20 µM [4]: 80%; Activity against perforin delivered by whole KHYG-1 NK cells (in words) [4]: excellent activity
